Test results reported in publication PMC5386672, “Structure-guided design of purine-based probes for selective Nek2 inhibition” (Oncotarget, 2016).
“Also recorded” adds a separate entry of the source.

Columns and labels:
Nek2 [1] = conditions: read-out: Nek2 inhibitory activity IC50; cited from earlier work
Nek2 [2] = target: T1, Nek2 (Homo sapiens, UniProt P51955); experiment: Nek2 Caliper kinase inhibition assay; type: biochemical; conditions: 30 μM ATP
T1 construct: purchased Invitrogen
T1 sequence (P51955 1-445): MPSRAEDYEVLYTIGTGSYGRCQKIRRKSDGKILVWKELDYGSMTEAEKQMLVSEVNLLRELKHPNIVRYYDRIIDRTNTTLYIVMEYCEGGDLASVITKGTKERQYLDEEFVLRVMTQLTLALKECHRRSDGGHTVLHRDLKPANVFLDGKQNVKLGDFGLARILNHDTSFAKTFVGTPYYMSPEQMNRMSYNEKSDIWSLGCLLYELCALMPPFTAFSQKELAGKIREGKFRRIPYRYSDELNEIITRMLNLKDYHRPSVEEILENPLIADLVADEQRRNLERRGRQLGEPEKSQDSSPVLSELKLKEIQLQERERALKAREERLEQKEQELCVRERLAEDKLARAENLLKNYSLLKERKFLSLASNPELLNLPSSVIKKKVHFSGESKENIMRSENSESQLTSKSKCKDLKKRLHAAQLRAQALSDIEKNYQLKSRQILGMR

CDK2 = CDK2 (Homo sapiens, UniProt P24941); experiment: CDK2 kinase inhibition assay; type: biochemical; conditions: 12.5 μM ATP
Plk1 = Plk1 (Homo sapiens, UniProt P53350); experiment: Separate counter-screen against Plk1; type: biochemical
Experimental: To assess the broader kinase selectivity of this series of 6-(dialkylamino)vinyl-purines, the diethylamino derivative 71 was chosen for wider screening against 24 kinases at 2 μM inhibitor concentration (Figure 5 – method as in reference 12).

Nek2 [3] = target: T1, Nek2; experiment: Nek2 inhibition reversibility assay (rapid dilution); type: biochemical; conditions: 30 min pre-incubation at ten-fold IC50, rapid 100-fold dilution
Experimental: The reversible nature of Nek2 inhibition by enamine 70 was measured using a kinase inhibition-reversibility assay. […] This solution in reaction buffer was pre-incubated with inhibitor 70 at a concentration ten-fold its IC50, calculated to afford approximately 91% inhibition of Nek2. […] Following rapid 1:100 dilution, a reaction progress curve was generated by monitoring for levels of the phosphorylated substrate as described in reference 16 using the Caliper EZ Reader II instrument at different times throughout the duration of the reaction.

Nek2 [4] = target: T1, Nek2; experiment: Effect of pre-incubation of Nek2 with inhibitor on IC50 (time-dependence); type: biochemical
Source text: www.impactjournals.com/oncotarget/ Oncotarget, Supplementary Materials 2016
Time after inhibitor addition
(1 picture or pasted object on this page, not shown here)

[5] = HPLC analysis of enamine stability in human plasma; type: in vitro ADME; conditions: over a period of 24 hours
[6] = HPLC analysis of enamine stability in assay media, DMSO and pH buffers; type: physicochemical
Experimental: To determine whether the enamines were hydrolysed under the assay conditions, the stability of representative enamine derivative 72 was assessed in a range of assay media and pH buffers. Stock solutions of 72 in each of the various media were prepared and aliquots were extracted from each solution at various time points and subjected to HPLC analysis to measure the remaining intact enamine (Figure 9).
Solutions of 10 μM 72 were prepared in100% MEM media, 100% RPMI media, 10% (v/v) FCS in MEM, 10% BSA in water (v/v), 10 % FCS (v/v) in water, or 10 % (v/v) boiled FCS in water, DMSO and phosphate buffered water at pH 2, pH 7 and pH 10 by adding 10 μL of the 1 mM working stock of 72 in MeCN to 990 μL of each medium. A 50 μL aliquot was removed directly and immediately extracted as described below. At 5, 10, 15, 30, 60, 90, 120, 180, 240, 360 and 1440 minutes after addition of the drug further aliquots of 50 μL were taken and extracted as below. At each time point the 50 μL of the test solution was added to 50 μL of acetonitrile (MeCN). Samples were mixed for 10 seconds on a vortex mixer and centrifuged at 15700 rcf for 5 minutes in a microcentrifuge. The supernatant solution from each sample was placed into an HPLC vial for analysis. Samples were analysed by reverse phase HPLC with PDA detection.

[7] = 10 min after inhibitor addition
[8] = 15 min after inhibitor addition
[9] = 30 min after inhibitor addition
[10] = 60 min after inhibitor addition

Chain of Plk1 (P53350 whole entry): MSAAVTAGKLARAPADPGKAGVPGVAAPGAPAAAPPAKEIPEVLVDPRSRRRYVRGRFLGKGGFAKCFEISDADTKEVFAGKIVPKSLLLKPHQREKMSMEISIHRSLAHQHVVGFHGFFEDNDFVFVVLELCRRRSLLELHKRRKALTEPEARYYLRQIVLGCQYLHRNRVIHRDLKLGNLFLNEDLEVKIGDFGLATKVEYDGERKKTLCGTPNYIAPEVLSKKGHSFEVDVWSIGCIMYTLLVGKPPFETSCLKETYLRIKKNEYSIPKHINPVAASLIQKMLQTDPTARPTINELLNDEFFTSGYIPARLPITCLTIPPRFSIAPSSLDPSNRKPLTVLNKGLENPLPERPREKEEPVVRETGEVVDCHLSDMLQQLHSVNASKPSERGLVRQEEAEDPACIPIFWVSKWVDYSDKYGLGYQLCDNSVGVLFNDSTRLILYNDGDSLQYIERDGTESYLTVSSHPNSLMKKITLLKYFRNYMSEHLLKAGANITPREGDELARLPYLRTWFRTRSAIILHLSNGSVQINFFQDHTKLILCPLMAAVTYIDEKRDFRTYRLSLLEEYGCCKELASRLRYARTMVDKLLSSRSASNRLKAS

Row | Compound | IC50 (Nek2 [2]; Caliper assay) [nM] | IC50 (CDK2) [µM] | melting point [°C] | also measured
1 | C[C@@]12c3ccc4c(c3C(=O)c3occ(c31)C(=O)C[C@H]2O)CCC4=O [Compound 4] | – | – | – | IC50 (Nek2 [1]): 1900 nM
2 | CN(C)CCNC(=O)Cc1cccc(Nc2nc(OCC3CCCCC3)c3nc[nH]c3n2)c1 [Compound 43, 2-[3-(6-Cyclohexylmethoxy-9H-purin-2-ylamino)phenyl]-N-(2-dimethylaminoethyl)acetamide] | 1000 | 0.59 | 161 to 162 | –
3 | CN(C)CCCCNC(=O)Cc1cccc(Nc2nc(OCC3CCCCC3)c3nc[nH]c3n2)c1 [Compound 45, 2-[3-(6-Cyclohexylmethoxy-9H-purin-2-ylamino)phenyl]-N-(4-dimethylaminobutyl)acetamide] | 700 | 0.86 | 125 to 127 | –
4 | CN1CCN(CCCNC(=O)Cc2cccc(Nc3nc(OCC4CCCCC4)c4nc[nH]c4n3)c2)CC1 [Compound 46, 2-[3-(6-Cyclohexylmethoxy-9H-purin-2-ylamino)phenyl]-N-[3-(4-methylpiperazin-1-yl)propyl]acetamide] | 3600 | 2.4 | 157 to 158 | –
5 | O=C(Cc1cccc(Nc2nc(OCC3CCCCC3)c3nc[nH]c3n2)c1)NCCCc1ccccc1 [Compound 47, 2-[3-(6-Cyclohexylmethoxy-9H-purin-2-ylamino)phenyl]-N-(3-phenylpropyl)acetamide] | – | 10 | 154 to 155 | Nek2 IC50 (Nek2 [2]; Caliper assay): Inactive
6 | O=S(=O)(Cc1cccc(Nc2nc(OCC3CCCCC3)c3nc[nH]c3n2)c1)N1CCNCC1 [Compound 50, 1-(3-(6-Cyclohexylmethoxy-9H-purin-2-ylamino)phenylmethanesulfonyl)piperazine] | 2600 | 0.45 | 127 to 128 | –
7 | CN(C)CCCNS(=O)(=O)Cc1cccc(Nc2nc(OCC3CCCCC3)c3nc[nH]c3n2)c1 [Compound 51, 1-[3-(6-Cyclohexylmethoxy-9H-purin-2-ylamino)phenyl]-N-(3-dimethylaminopropyl)methanesulfonamide] | 1420 | 0.53 | 167 to 168 | –
8 | COc1ccc(CNS(=O)(=O)Cc2cccc(Nc3nc(OCC4CCCCC4)c4nc[nH]c4n3)c2)cc1 [Compound 52, 1-[3-(6-Cyclohexylmethoxy-9H-purin-2-ylamino)phenyl]-N-(4-methoxybenzyl)methanesulfonamide] | – | 3 | 118 to 119 | inhibition at 100 µM (Nek2 [2]; @ 100 μM compound): 38%
9 | NS(=O)(=O)Cc1cccc(Nc2nc(OCC3CCCCC3)c3nc[nH]c3n2)c1 [Compound 53, [3-(6-Cyclohexylmethoxy-9H-purin-2-ylamino)phenyl]methanesulfonamide] | – | 0.24 | 134 to 135 | inhibition at 50 µM (Nek2 [2]; @ 50 μM compound): 81%
10 | CCOc1nc(Nc2cccc(CC(=O)NCCCn3ccnc3)c2)nc2[nH]cnc12 [Compound 62, 2-[3-(6-Ethoxy-9H-purin-2-ylamino)-phenyl]-N-(3-imidazol-1-ylpropyl)acetamide] | 2800 | 5.2 | 176 to 177 | –
11 | O=C(NCCN1CCCCC1)Nc1ccc(Nc2ncc3nc[nH]c3n2)cc1 [Compound 65, 1-(4-((9H-purin-2-yl)amino)phenyl)-3-(2-(piperidin-1-yl)ethyl)urea] | 4500 | – | 96 to 98 | inhibition at 100 µM (CDK2; @ 100 μM compound): 30%
12 | O=C(Cc1cccc(Nc2ncc3nc[nH]c3n2)c1)NCCCn1ccnc1 [Compound 67, N-(3-Imidazol-1-yl-propyl)-2-[3-(9H-purin-2-ylamino)phenyl]acetamide] | 5900 | > 100 | 121 to 122 | –
13 | C(=C\N1CCCC1)/c1nc(Nc2ccccc2)nc2[nH]cnc12 [Compound 69, (E)-N-Phenyl-6-(2-(pyrrolidin-1-yl)vinyl)-9H-purin-2-amine] | 340 | 5.8 | 138 to 140 | –
14 | CN(C)/C=C/c1nc(Nc2ccccc2)nc2[nH]cnc12 [Compound 70, (E)-6-(2-(Dimethylamino)vinyl)-N-phenyl-9H-purin-2-amine] | 770 | 3 | 129 to 131 | inhibition at 10 µM (Plk1): 41%; reversibility of Nek2 inhibition (Nek2 [3]): binds reversibly; also recorded: not an irreversible inhibitor; Hill slope (Nek2 [4]; 2 min after inhibitor addition): 0.73; IC50 (Nek2 [4]; 2 min after inhibitor addition): 1370 nM; Hill slope (Nek2 [4]; 5 min after inhibitor addition): 0.59; IC50 (Nek2 [4]; 5 min after inhibitor addition): 840 nM; Hill slope (Nek2 [4]; [7]): 0.79; IC50 (Nek2 [4]; [7]): 1580 nM; Hill slope (Nek2 [4]; [8]): 0.71; IC50 (Nek2 [4]; [8]): 1330 nM; Hill slope (Nek2 [4]; [9]): 0.72; IC50 (Nek2 [4]; [9]): 1060 nM; Hill slope (Nek2 [4]; [10]): 0.85; IC50 (Nek2 [4]; [10]): 1470 nM; time-dependence of Nek2 inhibition (Nek2 [4]; pre-incubation 2-60 min): not to exhibit time-dependent Nek2 inhibition kinetics
15 | C(=C\N1CCCCCC1)/c1nc(Nc2ccccc2)nc2[nH]cnc12 [Compound 72, (E)-6-(2-(Azepan-1-yl)vinyl)-N-phenyl-9H-purin-2-amine] | – | – | – | stability in human plasma [5]: relatively stable; stability in DMSO ([6]; DMSO solutions, for over 24 h): stable; stability in standard assay media ([6]; MEM and RPMI media, 10 μM, HPLC): degraded at a similar rate; stability at acidic pH ([6]; pH 2.2): relatively stable; stability at neutral pH ([6]; pH 7): rapidly degraded; stability at basic pH ([6]; pH 10.4): rapidly degraded
16 | CN(C)[C@@H]1CCN(/C=C/c2nc(Nc3ccccc3)nc3[nH]cnc23)C1 [Compound 73, (R, E)-6-(2-(3-(Dimethylamino)pyrrolidin-1-yl)vinyl)-N-phenyl-9H-purin-2-amine] | 3000 | 6.9 | 136 to 138 | –
